{
  "source": "patent US10189803B2",
  "about": "“Synthesis of therapeutic and diagnostic drugs centered on regioselective and stereoselective ring opening of aziridinium ions” (ILLINOIS INSTITUTE OF TECHNOLOGY, priority 2008, dated 2019)",
  "system": "HT29 cancer cells",
  "experiment": "Fluorescence imaging of cellular uptake in live HT29 cancer cells",
  "format": "cell-based, Human",
  "conditions": "50 μM, 0.5 h incubation",
  "source_text": "In order to visualize cellular uptake using fluorescence imaging, C-NE3TA was conjugated with an organic fluorescent moiety, NBD to produce C-NE3TA-NBD (FIG. 40). Thus, the starting material 15 was reacted with NBD-Cl to provide the fluorescent conjugate 16. t-Butyl groups in Compound 16 were removed by treating 4M HCl in 1,4-dioxane. C-NE3TA has the respective excitation and emission wavelength of 446 nm and 512 nm. Fluorescence and phase contrast images of control HT29 cells or HT29 cells incubated with C-NE3TA-NBD (50 μM) were obtained using a confocal microscope with a band-pass filter set at 436/20 nm (excitation) and 535/30 nm (emission). […] It was noted that the control HT29 colon cancer cells also emit auto-fluorescence at the wavelength of excitation. While polyaminocarboxylate NE3TA is too hydrophilic to enter the cancer cells, C-NE3TA-NBD containing liphophilic moieties, both benzyl and NBD group is proposed to penetrate into the cells resulting in the punctuate present in the cancer cells.\nFluorescence Imaging of live cancer cells. HT29 cancer cells were plated in glass cover slips which placed in 6-well plates, and were incubated with growth media in a humidified atmosphere with 5% CO2 at 37° C. overnight. Control cells or cells containing C-NE3TA-NBD (50 μM, H2O) were incubated with media for 0.5 h under 5% CO2 at 37° C. […]\nFluorescence imaging of live cancer cells. […]",
  "data": [
    {"smiles": "O=C(O)CNC(Cc1ccc(Nc2ccc([N+](=O)[O-])c3nonc23)cc1)CN1CCN(CC(=O)O)CCN(CC(=O)O)CC1", "note": "(stereo not shown) [C-NE3TA-NBD, (4-Carboxymethyl-7-{2-(carboxymethyl-amino)-3-[4-(7-nitro-benzo[1,2,5]oxadiazol-4-ylamino)-phenyl]-propyl}-[1,4,7]triazonan-1-yl)-acetic acid]", "values": [
      {"measurement": "cellular uptake by fluorescence imaging (in words)", "result": "does accumulate in the HT29 cancer cells"}
    ]}
  ]
}
